Series [1] has as its target T1, Receptor-interacting serine/threonine-protein kinase 1 (Homo sapiens, UniProt Q13546).
T1 sequence (Q13546 whole entry): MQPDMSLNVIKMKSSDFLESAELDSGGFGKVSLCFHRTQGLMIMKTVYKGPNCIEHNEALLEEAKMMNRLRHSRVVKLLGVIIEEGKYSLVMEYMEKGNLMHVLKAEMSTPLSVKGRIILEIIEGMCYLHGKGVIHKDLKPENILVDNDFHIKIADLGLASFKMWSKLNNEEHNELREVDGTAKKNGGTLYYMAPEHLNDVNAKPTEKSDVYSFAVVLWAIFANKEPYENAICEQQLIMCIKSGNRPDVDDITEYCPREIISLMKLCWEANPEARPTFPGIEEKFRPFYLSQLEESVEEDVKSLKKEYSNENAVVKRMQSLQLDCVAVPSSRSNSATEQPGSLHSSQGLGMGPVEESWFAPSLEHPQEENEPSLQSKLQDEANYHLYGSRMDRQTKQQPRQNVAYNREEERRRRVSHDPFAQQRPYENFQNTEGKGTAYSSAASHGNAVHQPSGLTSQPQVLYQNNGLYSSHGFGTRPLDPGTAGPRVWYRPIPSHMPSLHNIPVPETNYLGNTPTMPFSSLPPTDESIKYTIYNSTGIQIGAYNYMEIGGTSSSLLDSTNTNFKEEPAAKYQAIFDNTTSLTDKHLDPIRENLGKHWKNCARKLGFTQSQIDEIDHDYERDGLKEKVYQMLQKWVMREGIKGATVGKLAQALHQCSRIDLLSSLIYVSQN
The series is described as follows: Inhibition of human RIPK1 assessed as inhibition constant by ADP-Glo Kinase assay.

The target of series [2] is Mitogen-activated protein kinase kinase kinase 9 (Homo sapiens) (UniProt P80192). Kind of series: Inhibition of MLK1 (unknown origin) at 10 uM relative to control.
Sequence of Mitogen-activated protein kinase kinase kinase 9 (Homo sapiens) (P80192 whole entry, looked up): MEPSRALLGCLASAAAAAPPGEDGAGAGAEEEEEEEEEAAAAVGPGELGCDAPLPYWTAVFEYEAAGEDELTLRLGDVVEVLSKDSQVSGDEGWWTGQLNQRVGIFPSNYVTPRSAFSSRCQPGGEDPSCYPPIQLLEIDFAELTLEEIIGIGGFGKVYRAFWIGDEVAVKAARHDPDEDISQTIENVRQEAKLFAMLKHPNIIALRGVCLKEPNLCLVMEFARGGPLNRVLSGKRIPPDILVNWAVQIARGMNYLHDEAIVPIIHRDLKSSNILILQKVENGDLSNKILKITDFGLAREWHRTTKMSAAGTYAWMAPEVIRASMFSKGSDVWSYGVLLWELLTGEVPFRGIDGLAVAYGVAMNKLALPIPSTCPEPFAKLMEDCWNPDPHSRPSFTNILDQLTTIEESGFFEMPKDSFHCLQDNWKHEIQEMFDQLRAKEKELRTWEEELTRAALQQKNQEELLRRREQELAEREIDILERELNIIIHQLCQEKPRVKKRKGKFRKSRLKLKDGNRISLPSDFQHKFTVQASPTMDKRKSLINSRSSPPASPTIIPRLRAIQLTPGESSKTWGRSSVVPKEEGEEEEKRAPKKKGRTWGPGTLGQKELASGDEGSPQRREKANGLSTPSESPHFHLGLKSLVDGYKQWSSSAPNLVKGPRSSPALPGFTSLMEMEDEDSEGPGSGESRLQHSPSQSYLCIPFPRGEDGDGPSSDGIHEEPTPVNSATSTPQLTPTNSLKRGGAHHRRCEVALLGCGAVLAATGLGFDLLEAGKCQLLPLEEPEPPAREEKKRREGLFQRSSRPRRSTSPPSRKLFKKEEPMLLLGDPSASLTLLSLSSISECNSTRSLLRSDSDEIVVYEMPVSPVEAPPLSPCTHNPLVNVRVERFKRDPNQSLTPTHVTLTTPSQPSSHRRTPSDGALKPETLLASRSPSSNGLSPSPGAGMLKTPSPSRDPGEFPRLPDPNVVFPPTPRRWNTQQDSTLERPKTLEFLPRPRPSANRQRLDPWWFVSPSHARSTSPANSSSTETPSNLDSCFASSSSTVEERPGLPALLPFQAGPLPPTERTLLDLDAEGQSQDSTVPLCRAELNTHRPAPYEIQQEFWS
Series [3] has as its target T2, Receptor-interacting serine/threonine-protein kinase 1 (Homo sapiens) (UniProt Q13546).
T2 sequence (whole entry): T1 sequence (Q13546 whole entry)
Kind of series: Inhibition of RIPK1 (unknown origin) at 1 uM relative to control.

The nature of series [4]: Stability of the compound in PBS at pH 7.4 measured after 24 hrs. The following applies: read-out: Stability. Format: physicochemical.
The test system of a further series is U-937. Kind of series: Inhibition of necroptosis in human U-937 cells. Format: functional, cell-based.

15 compounds from ChEMBL document CHEMBL5625266, “Design, synthesis and biological evaluation of novel cyclic malonamide derivatives as selective RIPK1 inhibitors” (Bioorg Med Chem Lett, 2024) can be followed below.

By Ki is commonly meant a measure of affinity in units of concentration, obtained from inhibition or displacement. Broadly, the inhibition is the change of the read-out against control, counted positive when it falls. `COc1cc2c(cn1)N(C)C(=O)[C@H](C(=O)Nc1ncc(Cc3ccccc3)s1)CC2`: the Ki in series [1] was 1450 nM. This compound also showed an inhibition in series [2] of 28%.
For `CN1C(=O)C(C(=O)Nc2nc(Cc3ccccc3)n[nH]2)CCc2ccccc21` (stereo not drawn), in series [3], the inhibition came to 22%. Also, in series [4], the remaining at 24 h came to 14%.
One may read the IC50 as the point on the concentration scale where inhibition reaches its midpoint. Lower therefore signals higher potency. As to `CN1C(=O)C(C(=O)Nc2cn(Cc3c(F)cccc3F)cn2)CCc2ccccc21` (stereo not drawn), the Ki in series [1] was 56.2 nM. Besides, the IC50 in the series with U-937 was 148 nM.
On the same counts, the results for `COc1cc2c(cn1)N(C)C(=O)C(C(=O)Nc1ncc(Cc3ccccc3)s1)CC2` (racemic) are 52.5 nM and 57.5 nM.
For `CN1C(=O)C(C(=O)Nc2nnn(Cc3ccccc3)n2)CCc2ccccc21` (stereo not drawn), in that order: 31.6 nM and 36.3 nM.
For `COc1cc2c(cn1)N(C)C(=O)[C@@H](C(=O)Nc1ncc(Cc3ccccc3)s1)CC2`, in that order: 21.9 nM and 63.1 nM.
For the compound `CN1C(=O)[C@@H](NC(=O)c2n[nH]c(Cc3ccccc3)n2)COc2ccccc21` [GSK2982772], in the series with U-937, the half-maximal inhibitory concentration (IC50) is 5.89 nM. That is a single-digit nanomolar value.
Consider `COc1cc2c(cn1)N(C)C(=O)C(C(=O)Nc1cn(Cc3ccccc3)cn1)CC2` (stereo not drawn), for which the Ki in series [1] was 575 nM. The midpoint of inhibition in the series with U-937, the IC50, lay at 427 nM.
For `CN1C(=O)C(C(=O)Nc2ncn(Cc3ccccc3)n2)CCc2ccccc21` (stereo not drawn), in that order: 43.7 nM and 61.7 nM.
For `CN1C(=O)C(C(=O)Nc2ncc(Cc3ccccc3)s2)CCc2ccccc21` (stereo not drawn), in that order: 1.91 nM and 11.2 nM.
For `CN1C(=O)C(C(=O)Nc2cn(Cc3ccccc3)cn2)CCc2ccncc21` (stereo not drawn), the Ki in series [1] is 794 nM. The IC50 in the series on U-937 is 562 nM.
Take `CN1C(=O)C(C(=O)Nc2cn(Cc3ccccc3)nn2)CCc2ccccc21` (stereo not drawn): the Ki in series [1] was 58.9 nM. The compound also gave an IC50 in the series with U-937 of 79.4 nM.
For `CN1C(=O)C(C(=O)Nc2cn(Cc3ccccc3)cn2)CCc2cccnc21` (stereo not drawn), in that order: 214 nM and 1100 nM.
On the same counts, the results for `CN1C(=O)C(C(=O)Nc2ncc(Cc3ccccc3)o2)CCc2ccccc21` (stereo not drawn) are 200 nM and 891 nM.
Take `CN1C(=O)C(C(=O)Nc2cn(Cc3ccccc3)cn2)CCc2ccccc21` (stereo not drawn): the Ki in series [1] is 135 nM.
